From patent US20140057887A1, “NOVEL PLATINUM-CARBENE COMPLEXES AND USE THEREOF AS MEDICAMENTS” (priority 2010, published 2014)
“Also recorded” adds a separate entry of the source. Where two headings read alike, the source gives them in different places.

Assays:
[1] = system: SK-OV3; assay: Percentage of cellular inhibition at 10 μM, SK-OV3; assay type: cell-based; conditions: for Inhibition (in %) {SK-OV3}: final concentration 10 μM, ovarian adenocarcinoma
Description: (§1) (5% CO2). […] All the treatments are carried out in triplicate.
(§2) SK-OV-3 and OVCAR8: ovarian adenocarcinomas

[2] = system: HL60; assay: Percentage of cellular inhibition at 10 μM, HL60; assay type: cell-based; conditions: final concentration 10 μM; leukaemia
Description: as §1

[3] = system: HCT116; assay: Percentage of cellular inhibition at 10 μM, HCT116; assay type: cell-based, human; conditions: final concentration 10 μM; colon carcinoma
Description: as §1

[4] = system: KB; assay: Percentage of cellular inhibition at 10 μM, KB; assay type: cell-based; conditions: final concentration 10 μM; buccal carcinoma
Description: as §1

[5] = system: MCF7; assay: Percentage of cellular inhibition at 10 μM, MCF7; assay type: cell-based; conditions: final concentration 10 μM; breast carcinoma
Description: as §1

[6] = Measurement of water-solubility; assay type: physicochemical
[7] = system: OVCAR8; assay: Percentage of cellular inhibition at 10 μM, OVCAR8; assay type: cell-based; conditions: for Inhibition (in %) {OVCAR8}: final concentration 10 μM, ovarian adenocarcinoma
Description: as §1, §2

[8] = system: EPC; assay: Percentage of cellular inhibition at 10 μM, EPC; conditions: for Inhibition (in %) {EPC}: final concentration 10 μM, endothelial progenitor cells
Description: as §1
(§3) The endothelial progenitor cells (EPC) play an important role in angiogenesis and vasculogenesis; these last-mentioned contribute to tumour growth, are mobilized by cytokines secreted at cancer sites and contribute to postnatal vasculogenesis and to pathological neovascularization.
(§4) EPC: endothelial progenitor cells

[9] = system: PC3; assay: Percentage of cellular inhibition at 10 μM, PC3; assay type: cell-based; conditions: final concentration 10 μM; prostatic adenocarcinoma
Description: as §1
(§5) PC3: prostatic adenocarcinoma

[10] = system: cell lines KB, SK-OV3, OVCAR-8, HL60, MCF7, HCT116, PC3, MRCS, Vero and EPC; assay: Cellular inhibition, overall statements on the panel of cell lines; assay type: cell-based; conditions: 10 μM, panel of cancer and non-cancerous cell lines
Description: The results obtained are presented below.

[11] = target: integrin αvβ3 (Homo sapiens, UniProt P05106+P06756); conditions: background statement; cited from earlier work
Chain of integrin αvβ3 (P06756 31-889 limits assumed): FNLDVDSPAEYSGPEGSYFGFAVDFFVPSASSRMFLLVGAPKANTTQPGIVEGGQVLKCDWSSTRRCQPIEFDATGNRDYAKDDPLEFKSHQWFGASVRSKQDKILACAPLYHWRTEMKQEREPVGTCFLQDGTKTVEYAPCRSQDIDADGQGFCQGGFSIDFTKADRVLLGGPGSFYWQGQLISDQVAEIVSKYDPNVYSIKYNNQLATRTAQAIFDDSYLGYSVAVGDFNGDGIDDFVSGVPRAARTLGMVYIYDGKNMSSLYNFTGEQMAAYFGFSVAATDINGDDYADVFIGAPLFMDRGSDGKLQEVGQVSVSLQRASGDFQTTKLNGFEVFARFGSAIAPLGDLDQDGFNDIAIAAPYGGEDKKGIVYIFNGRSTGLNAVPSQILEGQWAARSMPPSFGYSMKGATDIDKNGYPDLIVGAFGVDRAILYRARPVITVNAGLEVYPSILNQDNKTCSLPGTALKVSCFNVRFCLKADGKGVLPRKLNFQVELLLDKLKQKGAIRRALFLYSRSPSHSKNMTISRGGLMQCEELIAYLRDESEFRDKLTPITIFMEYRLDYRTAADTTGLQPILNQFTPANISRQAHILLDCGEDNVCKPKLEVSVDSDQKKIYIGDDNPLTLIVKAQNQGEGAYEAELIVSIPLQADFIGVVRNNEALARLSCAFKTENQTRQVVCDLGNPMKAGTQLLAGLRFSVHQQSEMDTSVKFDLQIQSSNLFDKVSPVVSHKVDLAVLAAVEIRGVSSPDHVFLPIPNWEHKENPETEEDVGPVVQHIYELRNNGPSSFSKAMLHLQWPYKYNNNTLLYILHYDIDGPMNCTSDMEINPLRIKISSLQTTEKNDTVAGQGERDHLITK
Chain of integrin αvβ3 (P06756 891-1048 partner limits assumed): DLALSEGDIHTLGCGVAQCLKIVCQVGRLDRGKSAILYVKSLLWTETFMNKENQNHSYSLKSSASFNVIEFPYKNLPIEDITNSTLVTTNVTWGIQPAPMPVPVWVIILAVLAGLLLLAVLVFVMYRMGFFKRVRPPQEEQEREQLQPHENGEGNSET
Chain of integrin αvβ3 (P05106 27-788): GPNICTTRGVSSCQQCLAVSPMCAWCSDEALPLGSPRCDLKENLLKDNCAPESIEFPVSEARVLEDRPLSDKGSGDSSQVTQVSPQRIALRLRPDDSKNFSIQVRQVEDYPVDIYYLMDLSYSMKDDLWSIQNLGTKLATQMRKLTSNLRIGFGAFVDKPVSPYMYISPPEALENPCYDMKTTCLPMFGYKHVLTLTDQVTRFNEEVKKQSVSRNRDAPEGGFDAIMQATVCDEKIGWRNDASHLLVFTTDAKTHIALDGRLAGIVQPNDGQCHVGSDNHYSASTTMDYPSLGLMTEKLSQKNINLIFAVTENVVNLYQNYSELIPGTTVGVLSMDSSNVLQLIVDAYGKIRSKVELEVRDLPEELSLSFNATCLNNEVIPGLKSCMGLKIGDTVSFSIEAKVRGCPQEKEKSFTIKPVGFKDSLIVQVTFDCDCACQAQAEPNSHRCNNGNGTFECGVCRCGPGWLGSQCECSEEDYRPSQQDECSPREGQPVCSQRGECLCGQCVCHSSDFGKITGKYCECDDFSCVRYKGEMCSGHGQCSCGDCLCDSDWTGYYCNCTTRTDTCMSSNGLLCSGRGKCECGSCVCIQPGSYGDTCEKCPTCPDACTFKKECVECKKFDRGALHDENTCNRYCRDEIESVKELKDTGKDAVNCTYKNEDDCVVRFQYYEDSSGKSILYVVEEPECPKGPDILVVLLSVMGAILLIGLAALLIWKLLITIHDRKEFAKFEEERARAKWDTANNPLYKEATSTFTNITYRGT

[12] = system: SK-OV3; assay: Cytotoxicity in vitro, IC50 on SK-OV3; assay type: cell-based; conditions: ovarian adenocarcinoma
Description: as §1, §2
(§6) The cytotoxicity of a compound against a cancer cell line is evaluated.

[13] = system: MCF7; assay: Cytotoxicity in vitro, IC50 on MCF7; assay type: cell-based; conditions: breast carcinoma
Description: as §1, §6

[14] = system: EPC; assay: Cytotoxicity in vitro, IC50 on EPC (endothelial progenitor cells); assay type: cell-based
Description: as §1, §4, §3, §6

[15] = system: HCT116; assay: Cytotoxicity in vitro, IC50 on HCT116; assay type: cell-based, human
Description: as §1, §6

[16] = system: PC3; assay: Cytotoxicity in vitro, IC50 on PC3; assay type: cell-based
Description: as §1, §5, §6

[17] = system: OVCAR8; assay: Cytotoxicity in vitro, IC50 on OVCAR8; assay type: cell-based; conditions: ovarian adenocarcinoma
Description: as §1, §2, §6

[18] = system: MRC5; assay: Percentage of cellular inhibition at 10 μM, MRC5; assay type: cell-based, human; conditions: for Inhibition (in %) {MRC5}: final concentration 10 μM, human fetal lung cells (non-cancerous)
Description: as §1
MRCS: human fetal lung cells

[19] = system: Hela; assay: MTS cytotoxicity assay, IC50 on Hela cell line; conditions: for IC50: read-out: IC50 {Hela} (in μM), MTS assay, 48 h incubation
Description: (§7) MTS [3-(4,5-dimethylthiazol-2-yl)-5-(3-carboxymethoxyphenyl)-2-(4-sulphophenyl)-2H-tetrazolium] is reduced to formazan (coloured compound, the optical density of which is measured at 492 nm) by the mitochondrial dehydrogenases. Only the live cells will reduce MTS to formazan, which will be released in the medium. The optical density measured at 492 nm is directly proportional to the number of live cells.
(§8) MTS [3-(4,5-dimethylthiazol-2-yl)-5-(3-carboxymethoxyphenyl)-2-(4-sulphophenyl)-2H-tetrazolium], soluble in the culture medium, can be reduced to formazan (coloured product) by the mitochondrial dehydrogenases of the live cells. The measured optical density (492 nm) is therefore directly proportional to the quantity of live cells. The cells are deposited in a 96-well plate at 1.10^4 cells per well in 100 μL of RPMI 5% FCS. The cells are then treated with the various molecules at the desired concentrations and then incubated for 48 h at 37° C. (5% CO2). After treatment, 20 μL of MTS is added to each well. After incubation for two hours at 37° C. the optical density is measured at an absorbance of 492 nm using the plate reader Wallac Victor 2 Multi-label Counter (Technical University of Denmark, Kongens Lyngby, Denmark). All the treatments are carried out in triplicate. The blank, determined by incubating RPMI with MTS, is deducted from the values of the wells containing cells. The percentage of live cells is calculated from the following formula: (OD experiment*100)/OD control.
(§9) The cytotoxicity of the compounds according to the invention is measured in vitro on the Hela and U87 cell lines.
(§10) The cytotoxicity of a compound with respect to a cancer cell line is evaluated from the value of the inhibitory concentration IC50 of said compound with respect to said cell line.
(§11) The MTS assay gives an optical density signal that is proportional to the quantity of live cells (in a linear range). These values, as well as the untreated controls, are used for calculating the percentage of live cells at each concentration. […] The IC50 values are calculated on the basis of 4-parameter fitting using the Sigma Plot software.

[20] = system: U87; assay: MTS cytotoxicity assay, IC50 on U87 cell line; conditions: for IC50: read-out: IC50 {U87} (in μM), MTS assay, 48 h incubation
Description: as §7, §8, §9
U87: stage IV glioblastoma, expresses αVβ5 and can be used as a xenograft
as §10, §11

[21] = system: Vero; assay: Percentage of cellular inhibition at 10 μM, Vero; assay type: cell-based, monkey; conditions: for Inhibition (in %) {Vero}: final concentration 10 μM, monkey kidney epithelial cells (non-cancerous); for cytotoxicity on non-cancerous cells Vero (in words): 10 μM
Description: as §1
Vero: monkey kidney epithelial cells

[22] = measured by first dissolving cisplatin in water

Row | Molecule | Inhibition (in %) {SK-OV3} [1] [%] | Inhibition (in %) {HL60} [2] [%] | Inhibition (in %) {HCT116} [3] [%] | Inhibition (in %) {KB} [4] [%] | Inhibition (in %) {MCF7} [5] [%] | Inhibition (in %) {OVCAR8} [7] [%] | anti-angiogenic activity by inhibition of growth of EPC cells (in words) ([8]; 10 μM) | Inhibition (in %) {EPC} [8] [%] | Inhibition (in %) {PC3} [9] [%] | inhibition of cell growth, overall statement on the cell panel (in words) [10] | IC50 [12] [µM] | IC50 [13] [µM] | Inhibition (in %) {MRC5} [18] [%] | Inhibition (in %) {Vero} [21] [%] | further results
1 | trans-diiodo(N-[(methoxy)polyethylene glycol amine])[1-methyl-3-benzyl-imidazol-2-ylidene]platinum(II) [Example 22] | 90.3 | 87.4 | 94.3 | 77.8 | 91.7 | 90.0 | anti-angiogenic activity | 93.7 | 78.5 |  |  |  |  |  | Water-solubility ([6]; ambient temperature and pressure): 11100 µg/mL
2 | COCCOCCOCCOCCn1ccn(C)[c]1=[Pt]([I])[I].NC1CCCCC1 [Example 13, trans-diiodo(N-cyclohexylamine)[1-methyl-3-(2,5,8,11-tetraoxatridecan-13-yl)-imidazol-2-ylidene]platinum(II)] | 90.9 | 87.3 | 94.0 | 100.4 | 94.2 | 92.4 | anti-angiogenic activity | 96.1 | 83.8 | improves the activity of inhibition of cell growth |  |  |  |  | 
3 | cyclo(RGDfK) [cyclo(RGDfK) peptide] |  |  |  |  |  |  |  |  |  |  |  |  |  |  | affinity for integrin αvβ3 (in words) [11]: high affinity
4 | CNC(=O)NCC(Cc1ccccc1)NC(=O)NCC(Cc1ccccc1)NC(=O)NCC(Cc1ccccc1)NC(=O)NCC(N)Cc1ccccc1.Cn1ccn(Cc2ccccc2)[c]1=[Pt]([I])[I] [Example 39, trans-diiodo(N-[1-((2R,7R,12R,17R)-17-amino-2,7,12-tribenzyl-4,9,14-trioxo-18-phenyl-3,5,8,10,13,15-hexaazaoctadecyl)-3-methylurea])[1-methyl-3-benzyl-imidazol-2-ylidene]platinum(II)] | 95.2 | 91.0 | 96.1 | 101.2 | 95.9 | 92.1 | anti-angiogenic activity | 99.3 | 90.9 |  | 0.6 | 0.6 |  |  | IC50 [14]: 1.9 µM; IC50 ([15]; colon carcinoma): 0.4 µM; IC50 ([16]; prostatic adenocarcinoma): 1.4 µM
5 | N.N.[Cl][Pt][Cl] [Cisplatin, cisplatin, reference compound] | 4.4 | −10.6 | 2.7 | 3.6 | −4.1 | −1.8 |  | −1.2 | −6.2 |  | > 10 | > 10 | −20.4 | −4.0 | IC50 [14]: > 10 µM; IC50 [17]: > 10 µM; IC50 [19]: 26.2 µM; IC50 [15, 22]: 5.5 µM; IC50 [16, 22]: 5.1 µM; IC50 [20]: 8 µM
6 | CN1C=CN(Cc2ccccc2)[CH]1[Pt]([I])([I])[NH]CCN (stereo not drawn) [Example 33, trans-diiodo(N-ethylenediamine)[1-methyl-3-benzyl-imidazol-2-ylidene]platinum(II)] |  |  |  |  |  |  |  |  |  |  |  |  |  |  | solubility ([6]; water, thermodynamic from solid, ambient temperature and pressure): 3300 µg/mL
7 | trans-diiodo(N-poly(ethylenamine))[1-methyl-3-benzyl-imidazol-2-ylidene]platinum(II) [Example 34] | 99.1 | 97.0 | 90.1 | 64.0 | 98.2 | 79.1 | anti-angiogenic activity | 95.8 | 64.2 | inhibitor of the growth of cancer cells and an anti-angiogenic agent; also recorded: cytotoxic activity on all of the cancer cells tested | 1.2 | 1.7 | 26.4 | 19.5 | cytotoxic activity compared with cisplatin, HeLa cell line (in words) ([19]; comparison with cisplatin): almost identical to that of cisplatin; IC50 [19]: 28.4 µM; IC50 ([15]; colon carcinoma): 1 µM; IC50 ([16]; prostatic adenocarcinoma): 2.8 µM; Water-solubility [6]: 6700 µg/mL; cytotoxic activity compared with cisplatin, U87 cell line (in words) ([20]; comparison with cisplatin): almost identical to that of cisplatin; IC50 [20]: 8.3 µM; cytotoxicity on non-cancerous cells Vero (in words) [21]: low cytotoxicity
8 | COCCOCCOCCOCCn1ccn(CCOCCOCCOCCOC)[c]1=[Pt]([I])[I].NC1CCCCC1 [Example 14, trans-diiodo(N-cyclohexylamine)[1,3-di(2,5,8,11-tetraoxatridecan-13-yl)-imidazol-2-ylidene]platinum(II)] | 62.8 | 31.2 | 31.9 | 26.6 | 18.6 | 78.4 |  | 27.2 | 5.7 | selective inhibitor of the growth of cancer cells | 6.2 |  | 24.5 | 17.0 | selectivity of inhibition of cell growth, SKOV-3 (in words) ([1]; 10 μM): selective with respect to the ovarian cancer cells SKOV-3 and OVCAR8; IC50 [17]: 3.9 µM; cytotoxicity on non-cancerous cells MRCS (in words) ([18]; 10 μM): low cytotoxicity; selectivity of inhibition of cell growth, OVCAR8 (in words) ([7]; 10 μM): selective with respect to the ovarian cancer cells SKOV-3 and OVCAR8; cytotoxicity on non-cancerous cells EPC (in words) ([8]; 10 μM): low cytotoxicity; cytotoxicity on non-cancerous cells Vero (in words) [21]: low cytotoxicity
